Measured values reported in patent publication US20050101542A1, “Combination therapy for controlling appetites” (Regents of the University of California, priority 2002, published 2005).

Legend:
Astrocyte = test: [14C]oleate oxidation to ketone bodies in astrocytes; format: cell-based, rat; settings: 30 min incubation
Excerpt: (§1) This example illustrates the effect of OEA on fat metabolism and methods for studying the same. Oleoylethanolamide (OEA) decreases body weight not only by suppressing appetite, but also by possibly enhancing body fat catabolism. The effects of OEA on fatty acid oxidation in major body-fat burning tissues (soleus muscle, liver, cultured cardiac myocytes and astrocytes) was examined. […] In addition, OEA induces a significant mobilization of triacylglycerol stores from primary white adipose tissue cells. Table 4 details the methods and effects of OEA on fatty acid oxidation in these cells. Structure-activity relationship experiments provide evidence that the effect of OEA on skeletal muscle fatty acid oxidation is specific (FIG. 8).

[1] = Intracerebroventricular OEA on food intake in 24 h food-deprived rats; format: in vivo, rat; settings: for food intake 60 min / food intake 120 min / food intake 240 min: 24 h food-deprived rats
Protocol: Feeding experiments. Acute experiments. Food intake was measured in 24-h food-deprived rats (Navarro, et al., J. Neurochem., 67:1982-1991 (1996)), administering drugs 15 min before food presentation. Subchronic experiments. Ad libitum fed rats received vehicle injections for three days. On day four, the animals were divided in two equal groups and gave them daily injections of vehicle or OEA (5 mg per kg at 1900 h) for 7 consecutive days, while measuring body weight, food intake and water intake.

PPAR-α-regulated genes = test: Real time quantitative PCR of gene expression in mouse intestine and liver; format: in vivo
Protocol: Tissues were stored in RnaLater™ (Ambion), extracted total RNA with TRIzol™ (Invitrogen) and quantified it with Ribogreen™ (Molecular Probes). cDNA was synthesized by using SuperscriptII RNase H-reverse transcriptase (Invitrogen).
Reverse transcription of total RNA (2 μg) was performed using Oligo(dT)12-18 primer (0.2 μg) for 50 min at 42° C. Real Time Quantitative (RTQ) PCR was conducted using an ABI PRISM 7700 sequence detection system (Applied Biosystems). Primer/probe sets were designed using the Primer Express™ software and gene sequences available from the Genebank™ database. Primers and fluorogenic probes were synthesized by TIB (Adelphia). The primer/probe sequences for the mouse genes were:
RNA levels were normalized by using glyceraldehyde 3-phosphate dehydrogenase (GAPDH) as an internal standard. mRNA levels were measured by generating six-point serial standard curves using mouse total RNA. Estimates of relative mRNA abundance (in arbitrary units) were made by using the CT value (Schmittgen et al., 2000). Relative quantifications of RNAs of interest were made by using the 2^ΔCT formula, in which ΔCT was calculated by subtracting the CT value for GAPDH from the CT value for the gene of interest. This formula was validated for each primer/probe set by using six-point serial standard curves.

[2] = Liver OEA content after OEA injection in wild-type and PPAR-α null mice (HPLC/MS); format: in vivo, mouse; settings: 1 h after OEA 5 mg kg^−1 i.p.
Soleus muscle = test: [14C]oleate oxidation to CO2 in soleus muscle; format: cell-based, rat; settings: 10 μM, 30 min incubation
Excerpt: as §1

Adipocyte = test: Lypolysis (glycerol release) in adipocytes; format: cell-based, rat; settings: 30 min incubation
Excerpt: as §1

human PPARγ = target: T1, human PPARγ (Homo sapiens, UniProt P37231); test: GAL4 chimeric receptor transactivation assay in HeLa cells, PPARγ; format: cell-based
T1 construct: expressed in transfected cells; host or cells: HeLa (clonal reporter line HLR, stably transfected with pFA-PPARγ)
T1 sequence (P37231 238-503 limits assumed): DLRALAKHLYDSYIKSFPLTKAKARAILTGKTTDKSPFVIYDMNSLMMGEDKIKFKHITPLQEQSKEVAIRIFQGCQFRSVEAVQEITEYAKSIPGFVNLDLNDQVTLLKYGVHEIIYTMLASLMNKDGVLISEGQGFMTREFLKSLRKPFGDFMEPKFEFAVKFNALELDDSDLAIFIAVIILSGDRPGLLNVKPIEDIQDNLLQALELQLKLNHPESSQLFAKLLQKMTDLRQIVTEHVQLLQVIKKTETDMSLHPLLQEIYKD
Protocol: Transactivator plasmids pFA-PPARα, pFA-PPARδ, pFA-PPARγ and pFA-RXR, which encoded for the […] Of hPPARα ? ((499-1404), hPPARδ (412-1320), hPPARγ (610-1434) and hRXR (402-1389) fused to the DNA-binding domain (residues 1-147) Of yeast GAL4 under control of the human cytomegalovirus (CMV) promoter were generated. The plasmids contained a neomycin-resistance gene to provide stable selection with G418 (200 μg-ml^−1; Calbiochem). The HeLa cells were cultured in Dulbecco's-modified Eagles's medium (DMEM) supplemented with fetal bovine serum (10%). The cells were transfected with Fugene 6 (3 μl, Roche) Containing the pFR-luc plasmid (1 μg, Stratagene). Eighteen hours following transfection, the culture media was replaced with supplemented DMEM containing hygromycin (100 μg-ml^−1, Calbiochem). After 4 weeks in culture, the surviving clones were isolated and analyzed by luciferase assay. […] The cells were cultured in supplemented DMEM containing hygromycin and G418. For transactivation assays, cells were seeded in 6-well plates (50,000 cells per well) and incubated for 7 hours in supplemented DMEM containing hygromycin and G418, plus appropriate concentrations of test compounds. Dual-luciferase reporter assay system (Promega) and an MLX Microtiter® plate luminometer (Dynex) were used to determine luciferase activity in cell lysates. […]

SMILES: CCCCCCCC/C=C\CCCCCCCC(=O)NCCO [OEA, Z-2-hydroxyethyl octadec-9-enamide]
- Stimulatory effect of 10 μM OEA on [14C]oleate oxidation to ketone bodies (Astrocyte): 2 ± 6 (n = 3) %
- food intake 60 min ([1]; OEA 0.4 μg per animal i.c.v.): 4.8 ± 0.4
- food intake 120 min ([1]; OEA 0.4 μg per animal i.c.v.): 6.6 ± 0.4
- food intake 240 min ([1]; OEA 0.4 μg per animal i.c.v.): 8.4 ± 0.4
- food intake 60 min ([1]; OEA 2 μg per animal i.c.v.): 4.9 ± 0.4
- food intake 120 min ([1]; OEA 2 μg per animal i.c.v.): 6.6 ± 0.6
- food intake 240 min ([1]; OEA 2 μg per animal i.c.v.): 8.7 ± 0.5
- food intake 60 min ([1]; OEA 10 μg per animal i.c.v.): 5.9 ± 0.2
- food intake 120 min ([1]; OEA 10 μg per animal i.c.v.): 8.1 ± 0.4
- food intake 240 min ([1]; OEA 10 μg per animal i.c.v.): 9.6 ± 0.7
- effect on food intake after direct injection into the brain ventricles ([1]; i.c.v.): ineffective
- expression of PPAR-α-regulated genes (PPAR-α-regulated genes; ileum): not and fail to induce expression
- expression of PPAR-α-regulated genes (PPAR-α, FAT/CD36, FATP1) (PPAR-α-regulated genes; jejunum of wild-type mice, OEA or oleic acid 10, Wy-14643 30 mg kg^−1 i.p.): increased the expression
- expression of genes not under the control of PPAR-α (I-FABP, PPAR-β/δ, PPAR-γ) (PPAR-α-regulated genes; jejunum, wild-type or PPAR-α-null mice): not affected
- gene expression in mice deficient in PPAR-α (PPAR-α-regulated genes; jejunum, OEA 10, Wy-14643 30 mg kg^−1 i.p.): did not stimulate gene expression
- transcription of PPAR-α-regulated genes (PPAR-α-regulated genes; liver of wild-type mice): initiated transcription
- Liver OEA content ([2]; PPAR-α-null mice): 251.2 ± 28.2 pmol/g
- Liver OEA content ([2]; wild-type mice): 150.5 ± 19.7 pmol/g
- Stimulatory effect of 10 μM OEA on [14C]oleate oxidation to CO2 (Soleus muscle): 36 ± 10 (n = 4) %
- Stimulatory effect of 10 μM OEA on lypolysis (glycerol release) (Adipocyte): 38 ± 16 (n = 3) %
- effect on PPARγ (human PPARγ): no effect
